Among the data in PubChem BioAssay (NCI) are TGI and GI50 values, retold here.

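Protocol summary: plate cells (96-well), add compound at 5 concentrations, incubate 48 h, interpolate endpoints linearly. At the GI50, growth is halved. Definition used: TGI = concentration required for complete inhibition of growth.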

Some test systems named below: A498 renal; HCT-116 colon; HL-60(TB) leukemia; HT29 colon; IGROV1 ovarian; NCI-H460 lung; OVCAR-3 ovarian; SK-MEL-2 melanoma; SK-MEL-5 melanoma; UACC-62 melanoma.
Holding throughout (assay): NCI-60 cell line screen, 48 h

Consider `CCSCC(N)C(=O)O` (stereo not given), for which the TGI in the experiment on A498 renal, in the experiment with HCT-116 colon, with HL-60(TB) leukemia, with HT29 colon, in the experiment on IGROV1 ovarian and in the experiment with NCI-H460 lung was greater than 100 µM each time. Besides, the TGI in the experiment on OVCAR-3 ovarian, with SK-MEL-2 melanoma, in the experiment with SK-MEL-5 melanoma and in the experiment on UACC-62 melanoma was greater than 100 µM throughout.
With `Cc1ccc(-c2nc(SCC(=O)O)n[nH]2)cc1`, the TGI in the experiment on A498 renal, with HCT-116 colon, with HL-60(TB) leukemia, with HT29 colon, in the experiment with IGROV1 ovarian and in the experiment with NCI-H460 lung was greater than 100 µM throughout. The TGI in the experiment on OVCAR-3 ovarian, in the experiment with SK-MEL-2 melanoma, with SK-MEL-5 melanoma and with UACC-62 melanoma was greater than 100 µM throughout.
For the compound `CC(=O)C1CC=C(C)CC1` (stereo not given), the TGI with A498 renal, in the experiment on HCT-116 colon, with HL-60(TB) leukemia, in the experiment with HT29 colon, in the experiment on IGROV1 ovarian and with NCI-H460 lung was greater than 100 µM each time. For the same compound, the TGI in the experiment with OVCAR-3 ovarian, in the experiment with SK-MEL-2 melanoma, in the experiment on SK-MEL-5 melanoma and in the experiment with UACC-62 melanoma was greater than 100 µM throughout.
Take `NC(CSC(c1ccccc1)(c1ccccc1)c1ccc(Cl)cc1)C(=O)O` (stereo not given): the GI50 in the experiment on A498 renal is 0.746 µM; in the experiment on HCT-116 colon, 0.0476 µM; in the experiment on HL-60(TB) leukemia it was 0.24 µM; with HT29 colon, 0.347 µM; in the experiment on IGROV1 ovarian it was 0.355 µM; with NCI-H460 lung, 0.342 µM. Also, the GI50 is 0.255 µM in the experiment with OVCAR-3 ovarian, 0.239 µM with SK-MEL-2 melanoma, 0.0612 µM with SK-MEL-5 melanoma and 0.18 µM in the experiment with UACC-62 melanoma. Besides, the TGI in the experiment on A498 renal is 48.8 µM; with HCT-116 colon, 11.2 µM; with HL-60(TB) leukemia, 0.724 µM; in the experiment with HT29 colon, 6.92 µM; with IGROV1 ovarian, 34.1 µM; with NCI-H460 lung, 12.9 µM. In addition, the TGI with OVCAR-3 ovarian was found to be 3.37 µM; with SK-MEL-2 melanoma, 5.07 µM; in the experiment with SK-MEL-5 melanoma, 14.1 µM; in the experiment with UACC-62 melanoma, 21.6 µM.
For `CC(C)C1OC(=O)C=C1Sc1ccccc1` (stereo not given), the TGI with A498 renal, in the experiment on HCT-116 colon, with HL-60(TB) leukemia, in the experiment on HT29 colon, in the experiment with IGROV1 ovarian and with NCI-H460 lung was greater than 100 µM each time. In addition, the TGI in the experiment with OVCAR-3 ovarian, with SK-MEL-2 melanoma, in the experiment with SK-MEL-5 melanoma and in the experiment with UACC-62 melanoma was greater than 100 µM each time.
As for `COc1cc(NCCCCN=C(N)NC(N)=NC(C)C)c2ncccc2c1`, the GI50 in the experiment with A498 renal is 28.5 µM; in the experiment with HCT-116 colon, 2.26 µM; in the experiment with HL-60(TB) leukemia, 3.47 µM; in the experiment on HT29 colon, 7.49 µM; in the experiment on IGROV1 ovarian, 0.439 µM; in the experiment with NCI-H460 lung, 5.97 µM. The GI50 was 0.311 µM with OVCAR-3 ovarian, 3.8 µM in the experiment with SK-MEL-2 melanoma, 2.84 µM in the experiment with SK-MEL-5 melanoma and 10.3 µM with UACC-62 melanoma. Moreover, the TGI in the experiment with A498 renal is greater than 100 µM; in the experiment on HCT-116 colon it was 11.1 µM; with HL-60(TB) leukemia, 10.9 µM; in the experiment with HT29 colon, 32.2 µM; with IGROV1 ovarian, 6.32 µM; in the experiment with NCI-H460 lung, 20 µM. Besides, the TGI was found to be 0.897 µM in the experiment with OVCAR-3 ovarian, 14.9 µM with SK-MEL-2 melanoma, 10.7 µM in the experiment with SK-MEL-5 melanoma and 24.3 µM with UACC-62 melanoma.
`CCOC(=O)c1sc2nc3sc(N=Nc4ccc(Cl)cc4)c(O)n3c(=S)c2c1C`: the GI50 in the experiment with A498 renal is 24.1 µM; with HCT-116 colon, 33.8 µM; in the experiment with HL-60(TB) leukemia, greater than 100 µM; in the experiment on HT29 colon it was 36.9 µM; in the experiment with IGROV1 ovarian, greater than 100 µM; in the experiment on NCI-H460 lung it was 25.9 µM. The GI50 was 36.7 µM with OVCAR-3 ovarian, greater than 100 µM in the experiment with SK-MEL-2 melanoma, 17.1 µM with SK-MEL-5 melanoma and 13 µM in the experiment with UACC-62 melanoma. Also, the TGI is 62.5 µM in the experiment with A498 renal; greater than 100 µM with HCT-116 colon; greater than 100 µM in the experiment on HL-60(TB) leukemia; greater than 100 µM in the experiment with HT29 colon; greater than 100 µM in the experiment on IGROV1 ovarian; greater than 100 µM in the experiment on NCI-H460 lung. Besides, the TGI is greater than 100 µM in the experiment on OVCAR-3 ovarian, greater than 100 µM in the experiment with SK-MEL-2 melanoma, 35.8 µM in the experiment on SK-MEL-5 melanoma and 32.5 µM in the experiment with UACC-62 melanoma.
On to `CC(=O)N1CC(Nc2ccc(OC(F)(F)F)cc2)=CC1=O`, for which the GI50 in the experiment on A498 renal was 1.25 µM; with HCT-116 colon it was 0.472 µM; with HL-60(TB) leukemia, 0.842 µM; in the experiment on HT29 colon, 0.482 µM; in the experiment with IGROV1 ovarian, 7.81 µM; in the experiment with NCI-H460 lung, 0.696 µM. Further, the GI50 in the experiment with OVCAR-3 ovarian is 1.19 µM; in the experiment on SK-MEL-2 melanoma, 0.52 µM; with SK-MEL-5 melanoma it was 0.377 µM; in the experiment on UACC-62 melanoma it was 0.821 µM. The TGI with A498 renal is 24.2 µM; with HCT-116 colon, 23.3 µM; in the experiment with HL-60(TB) leukemia, greater than 100 µM; in the experiment on HT29 colon it was 28.6 µM; in the experiment with IGROV1 ovarian, greater than 100 µM; in the experiment on NCI-H460 lung it was greater than 100 µM. Moreover, the TGI with OVCAR-3 ovarian is 4.03 µM; in the experiment on SK-MEL-2 melanoma, 95.9 µM; in the experiment on SK-MEL-5 melanoma it was 12.1 µM; with UACC-62 melanoma it was greater than 100 µM.
With `COc1ccc(/C(Cl)=C(\C=O)c2ccc([N+](=O)[O-])cc2)cc1OC`, the TGI is greater than 54.4 µM in the experiment with A498 renal; 24.9 µM with HCT-116 colon; 11.6 µM in the experiment on HL-60(TB) leukemia; greater than 30.5 µM in the experiment on HT29 colon; 38.6 µM in the experiment on IGROV1 ovarian; 34 µM in the experiment on NCI-H460 lung. For the same compound, the TGI in the experiment on OVCAR-3 ovarian is 38 µM; with SK-MEL-2 melanoma, greater than 77.1 µM; in the experiment on SK-MEL-5 melanoma, 23 µM; in the experiment on UACC-62 melanoma, 16.2 µM.
As for `CCOc1ccc([C@@H]2[C@@H](Oc3ccccc3)C(=O)N2c2cc(OC)c(OC)c(OC)c2)cc1`, the GI50 in the experiment with A498 renal was 0.0205 µM; in the experiment with HCT-116 colon it was 0.0437 µM; in the experiment with HL-60(TB) leukemia, 0.0263 µM; in the experiment with HT29 colon, 0.0491 µM; with IGROV1 ovarian, 0.15 µM; in the experiment on NCI-H460 lung, 0.285 µM. The GI50 in the experiment with OVCAR-3 ovarian is 0.0355 µM; in the experiment on SK-MEL-2 melanoma, 0.097 µM; in the experiment with SK-MEL-5 melanoma, 0.0395 µM; with UACC-62 melanoma, 0.0427 µM. The TGI in the experiment with A498 renal is 0.0853 µM; in the experiment with HCT-116 colon, 3.88 µM; in the experiment with HL-60(TB) leukemia it was 0.0691 µM; with HT29 colon it was 0.522 µM; in the experiment with IGROV1 ovarian it was greater than 100 µM; in the experiment with NCI-H460 lung, greater than 100 µM. Besides, the TGI in the experiment on OVCAR-3 ovarian was greater than 100 µM; in the experiment on SK-MEL-2 melanoma it was greater than 100 µM; with SK-MEL-5 melanoma, 1.16 µM; with UACC-62 melanoma, greater than 100 µM.
In the case of `CCCCCC(O)C1C(=O)OC(C)C(O)/C=C/C=C/C=C/C=C\C=C(\C)C(O)CC(O)CC(O)CC(O)CC(O)CC(O)CC1O` (stereo not given), the GI50 in the experiment with A498 renal, in the experiment with HCT-116 colon, in the experiment on HL-60(TB) leukemia, in the experiment with HT29 colon, in the experiment on IGROV1 ovarian and with NCI-H460 lung was greater than 100 µM in each case. Further, the GI50 with OVCAR-3 ovarian, in the experiment with SK-MEL-2 melanoma, with SK-MEL-5 melanoma and in the experiment on UACC-62 melanoma was greater than 100 µM in each case. Also, the TGI with A498 renal, with HCT-116 colon, in the experiment on HL-60(TB) leukemia, in the experiment with HT29 colon, in the experiment with IGROV1 ovarian and with NCI-H460 lung was greater than 100 µM in each case. For the same compound, the TGI in the experiment on OVCAR-3 ovarian, with SK-MEL-2 melanoma, in the experiment on SK-MEL-5 melanoma and in the experiment with UACC-62 melanoma was greater than 100 µM each time.
`COc1ccc(/C(=N/NC(=O)NN)C(c2ccc(OC)cc2)C2(O)CNc3c(Cl)cc(Cl)cc32)cc1` (stereo not given): the TGI in the experiment on A498 renal, with HCT-116 colon, with HL-60(TB) leukemia, in the experiment with HT29 colon, with IGROV1 ovarian and in the experiment with NCI-H460 lung was greater than 100 µM in each case. The TGI with OVCAR-3 ovarian, in the experiment with SK-MEL-2 melanoma, in the experiment with SK-MEL-5 melanoma and in the experiment on UACC-62 melanoma was greater than 100 µM each time.
As to `COc1cc(C(=O)/C=C/c2cc(C(=O)c3cc(OC)c(OC)c(OC)c3)ccc2OC)ccc1N`, the GI50 in the experiment on A498 renal is 2.14 µM; in the experiment on HCT-116 colon it was 0.661 µM; in the experiment on HL-60(TB) leukemia, 1.48 µM; in the experiment on HT29 colon it was 0.422 µM; in the experiment on IGROV1 ovarian it was 2.07 µM; in the experiment with NCI-H460 lung, 2.13 µM. Besides, the GI50 in the experiment with OVCAR-3 ovarian was 0.448 µM; with SK-MEL-2 melanoma, 1.63 µM; in the experiment with SK-MEL-5 melanoma, 1.02 µM; with UACC-62 melanoma, 1.17 µM. In addition, the TGI is 5.92 µM in the experiment on A498 renal; 2.03 µM in the experiment with HCT-116 colon; 6.82 µM in the experiment on HL-60(TB) leukemia; 1.56 µM with HT29 colon; 8.62 µM in the experiment on IGROV1 ovarian; 7.61 µM in the experiment with NCI-H460 lung. Moreover, the TGI in the experiment on OVCAR-3 ovarian was found to be 4.17 µM; with SK-MEL-2 melanoma it was 3.72 µM; with SK-MEL-5 melanoma it was 2.18 µM; in the experiment with UACC-62 melanoma, 2.66 µM.
